This passage reports BCS classification and Solubility results from patent US20230226007A1, “NANOPARTICULATE COMPOSITION” (Algiax Pharmaceuticals GmbH, priority 2020, published 2023).

A short description of this data set: Solubility of AP-325 in different solvents at ambient temperature. It is filed as physicochemical. The source says:
AP-325 is a pharmaceutical agent, which is currently in clinical development. […] For a better characterization of active ingredients with low solubility, a classification according to the BCS system (=Biopharmaceutics Classification System) was introduced (Guidance for Industry: Immediate release solid oral dosage forms and FDA, 1995). This BCS system distinguishes four categories based on the solubility and permeability of the active substance. At a pH value of below 7 AP-325 can be classified as a BCS class II drug substance. The low solubility of AP-325 negatively affects the absorption into the body after oral administration due to a limited absorption of the active agent in the small intestine (such as the jejunum or ileum), which is an essential absorption window for the uptake of a drug. Consequently, the therapeutic effect cannot be achieved.
FIG. 3: Solubility of AP-325 in different solvents at ambient temperature.

Structures are written as SMILES.

For `Cc1cc(NC(=O)/C(C#N)=C(\O)C2CC2)ccc1C(F)(F)F` [AP-325], the BCS classification result (pH value of below 7) was “BCS class II”. The Solubility result (physiological pH of 6.8 (phosphate buffer), ambient temperature) is “practically insoluble”.
